From patent US10695322B2 (priority 2016, dated 2020)
Like-named read-outs stand apart in the source and are kept apart here.

Key:
[1] = target: LdtMab2, wild-type (MAB_1530, orthologue of LdtMt2; fragment without putative transmembrane domain) (Mycobacteroides abscessus, UniProt B1MMQ4); test: biochemical; type: binding, Mycobacterium abscessus; conditions: Figure 6; ITC, wt, protein 150 μM, ligand 2 mM, pH 8.0, 24° C.
[2] = target: T1, LdtMt2 (Mycobacterium tuberculosis, UniProt I6Y9J2); test: biochemical; parameters: species or system M. tuberculosis
T1 sequence (I6Y9J2 56-408 limits assumed): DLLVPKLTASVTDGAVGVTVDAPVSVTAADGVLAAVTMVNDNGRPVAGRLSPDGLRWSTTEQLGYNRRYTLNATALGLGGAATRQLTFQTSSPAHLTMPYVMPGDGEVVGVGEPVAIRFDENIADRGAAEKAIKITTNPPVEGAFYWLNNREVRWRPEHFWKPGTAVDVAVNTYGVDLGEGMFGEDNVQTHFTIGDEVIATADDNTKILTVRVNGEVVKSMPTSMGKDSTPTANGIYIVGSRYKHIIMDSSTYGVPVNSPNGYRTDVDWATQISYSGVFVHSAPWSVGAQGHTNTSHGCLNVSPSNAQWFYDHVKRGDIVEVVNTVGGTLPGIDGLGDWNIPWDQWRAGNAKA

[3] = target: LdtMab1, wild-type (MAB_3165c, orthologue of LdtMt1) (Mycobacteroides abscessus, UniProt B1MDC1); test: biochemical; type: binding, Mycobacterium abscessus; conditions: Figure 6; ITC, wt, protein 150 μM, ligand 2 mM, pH 8.0, 24° C.
LdtMab1, wild-type (MAB_3165c, orthologue of LdtMt1), sequence (B1MDC1 21-248): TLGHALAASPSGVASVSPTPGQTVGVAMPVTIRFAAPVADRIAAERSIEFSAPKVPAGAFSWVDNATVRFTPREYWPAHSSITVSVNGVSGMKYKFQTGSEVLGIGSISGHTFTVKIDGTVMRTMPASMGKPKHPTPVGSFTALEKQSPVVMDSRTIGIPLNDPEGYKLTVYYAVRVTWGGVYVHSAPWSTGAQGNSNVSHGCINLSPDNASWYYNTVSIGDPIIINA

[4] = tested on: M. tuberculosis; conditions: oral gavage; recent report; cited from earlier work
[5] = target: T2, human DHP-1 (Homo sapiens, UniProt P16444); conditions: cited from earlier work
T2 sequence (P16444 17-385): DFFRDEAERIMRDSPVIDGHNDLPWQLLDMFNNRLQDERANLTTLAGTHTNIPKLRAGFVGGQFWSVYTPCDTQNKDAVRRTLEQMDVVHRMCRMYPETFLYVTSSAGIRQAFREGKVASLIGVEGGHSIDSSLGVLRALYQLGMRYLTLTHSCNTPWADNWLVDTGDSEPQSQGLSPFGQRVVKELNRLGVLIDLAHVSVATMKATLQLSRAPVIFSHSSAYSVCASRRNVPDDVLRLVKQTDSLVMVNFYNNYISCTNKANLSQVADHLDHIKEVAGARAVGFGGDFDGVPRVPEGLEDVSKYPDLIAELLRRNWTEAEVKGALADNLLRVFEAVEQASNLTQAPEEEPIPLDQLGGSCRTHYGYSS

[6] = target: T1, LdtMt2; type: binding, M. tuberculosis; conditions: for mass of stable adduct with wild-type LdtMt2: UPLC-MS
[7] = tested on: M. tuberculosis; type: in vivo, BALB/c mice; conditions: for gross pathology of lungs (tuberculous lesions): mouse, in vivo
[8] = tested on: M. tuberculosis; conditions: mouse, in vivo; cited from earlier work
[9] = target: T3, LdtMt1 (Mycobacterium tuberculosis, UniProt O53638); test: biochemical; type: binding, M. tuberculosis; conditions: ITC, 24° C., tris pH 8.0; single binding modality
T3 sequence (O53638 32-251 limits assumed): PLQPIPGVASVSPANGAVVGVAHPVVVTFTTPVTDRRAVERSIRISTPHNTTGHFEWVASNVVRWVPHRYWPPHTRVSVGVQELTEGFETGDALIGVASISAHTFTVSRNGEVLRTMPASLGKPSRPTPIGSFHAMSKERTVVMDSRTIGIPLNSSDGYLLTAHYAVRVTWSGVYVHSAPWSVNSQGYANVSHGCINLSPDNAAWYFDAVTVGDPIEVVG

[10] = tested on: LdtKp; test: UPLC-MS analysis of protein-drug adducts, LdtKp; type: binding, K. pneumoniae
[11] = tested on: LdtCl; test: UPLC-MS analysis of protein-drug adducts, LdtCl; type: binding, E. cloacae
Protocol: Ultra-performance liquid chromatography-high resolution mass spectrometry (UPLC-MS) with a Waters Acquity H-Class system utilizing a Waters Acquity BEH-300 UPLC column packed with a C4 stationary phase (2.1×50 mm, 1.7 μm) in conjunction with HRMS analysis by a Waters Xero-G2 quadropole-TOF electrospray mass spectrometer was used to detect and analyze protein-drug adducts. Each enzyme (2 μM) in 25 mM Tris buffer, pH 8, was incubated in the absence or presence of drugs (50 μM) at room temperature for 5 hours. Trifluoroacetic acid (0.1% final) was used to quench the reactions, samples were filtered through a 0.22 um filter and analyzed using UPLC-MS as follows: Mobile phase: 0-1 min 90% water+10% ACN+0.1% formic acid, 1-7.5 min gradient up to 20% water+80% ACN+0.1% formic acid, 7.5-8.4 min 20% water+80% ACN+0.1% formic acid, 8.4-8.5 min gradient up to 90% water+10% ACN+0.1% formic acid, 8.5-10 min 90% water+10% ACN+0.1% formic acid. Flow rate=0.3 mL min^−1. T=60° C.

[12] = tested on: LdtMab2; test: UPLC-MS analysis of protein-drug adducts, LdtMab2; type: binding, M. abscessus
[13] = target: T4, LdtMab1 (Mycobacteroides abscessus, UniProt B1MDC1); test: UPLC-MS analysis of protein-drug adducts, LdtMab1; type: binding, M. abscessus
T4 sequence (B1MDC1 entry or part of it): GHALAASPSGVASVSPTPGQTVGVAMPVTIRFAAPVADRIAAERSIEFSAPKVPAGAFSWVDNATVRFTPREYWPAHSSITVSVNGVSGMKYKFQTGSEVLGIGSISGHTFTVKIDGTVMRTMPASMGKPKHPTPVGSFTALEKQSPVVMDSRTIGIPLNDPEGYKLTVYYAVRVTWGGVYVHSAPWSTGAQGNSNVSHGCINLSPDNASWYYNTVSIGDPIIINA

[14] = target: T4, LdtMab1; test: Isothermal titration calorimetry, binding to LdtMab1; conditions: ITC, 24° C., tris pH 8.0
[15] = target: T3, LdtMt1; type: binding, M. tuberculosis
[16] = target: LdtMab2 (Mycobacteroides abscessus, UniProt B1MMQ4); test: Isothermal titration calorimetry, binding to LdtMab2; parameters: species or system M. abscessus; conditions: ITC, 24° C., tris pH 8.0; read-out: Kd
LdtMab2 (Mycobacteroides abscessus, UniProt B1MMQ4), sequence (B1MMQ4 62-406 limits assumed): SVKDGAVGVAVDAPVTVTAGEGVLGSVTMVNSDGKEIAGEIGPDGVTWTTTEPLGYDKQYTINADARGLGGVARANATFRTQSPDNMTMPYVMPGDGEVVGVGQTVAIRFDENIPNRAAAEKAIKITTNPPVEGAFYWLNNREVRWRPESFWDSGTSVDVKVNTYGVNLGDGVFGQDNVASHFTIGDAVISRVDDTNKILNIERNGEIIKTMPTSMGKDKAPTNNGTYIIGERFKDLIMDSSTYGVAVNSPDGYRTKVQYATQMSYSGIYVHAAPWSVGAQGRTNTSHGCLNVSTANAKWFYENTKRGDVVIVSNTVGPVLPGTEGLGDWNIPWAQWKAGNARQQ

[17] = target: T5, LdtMt2, wild-type (L,D-transpeptidase of M. tuberculosis; fragment without N-terminal transmembrane domain, N-terminal His6, TEV-cleavable) (Mycobacterium tuberculosis, UniProt I6Y9J2); test: biochemical; type: binding
T5 construct: Fragments excluding the putative transmembrane domain were cloned, expressed and purified; His6 (TEV-cleavable) (N); made in house; host or cells: E. coli BL21(DE3)
T5 sequence (I6Y9J2 56-408 limits assumed): as the sequence (I6Y9J2 56-408 limits assumed) above

[18] = 10 μM LdtMt2, MES pH 6.5, 10° C.
[19] = competition: equimolar mixture of doripenem, biapenem, faropenem and tebipenem, within one minute
[20] = equimolar mixture of amoxicillin, cephalothin, aztreonam and faropenem

LdtMab2, wild-type (MAB_1530, orthologue of LdtMt2; fragment without putative transmembrane domain), sequence (B1MMQ4 32-406): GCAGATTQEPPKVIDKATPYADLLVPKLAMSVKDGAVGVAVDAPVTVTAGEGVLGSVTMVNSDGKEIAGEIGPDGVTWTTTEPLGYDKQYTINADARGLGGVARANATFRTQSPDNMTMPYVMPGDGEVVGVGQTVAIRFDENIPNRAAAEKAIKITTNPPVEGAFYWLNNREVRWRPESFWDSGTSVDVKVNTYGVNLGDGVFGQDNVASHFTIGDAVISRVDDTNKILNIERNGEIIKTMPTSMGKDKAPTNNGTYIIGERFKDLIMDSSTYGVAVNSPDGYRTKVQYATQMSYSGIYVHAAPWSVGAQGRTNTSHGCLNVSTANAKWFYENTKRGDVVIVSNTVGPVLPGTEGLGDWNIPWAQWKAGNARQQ

## C[C@@H](O)[C@H]1C(=O)N2C(C(=O)O)=C(SC3CN(C4=NCCS4)C3)[C@H](C)[C@H]12 [tebipenem]
[1]
  Kd: 6.1 µM
[2]; [18]
  Kapp: 38.4 ± 9.7 µM
[3]
  Kd: 0.82 µM

## Cc1oc(=O)oc1COC(=O)C1=C([C@H]2CCCO2)S[C@@H]2[C@@H]([C@@H](C)O)C(=O)N12 [faropenem medoxomil]
[4]
  M. tuberculosis burden in the lungs: ineffective

## C[C@@H](O)[C@H]1C(=O)N2C(C(=O)[O-])=C(SC3Cn4cnc[n+]4C3)[C@H](C)[C@H]12 (stereo partly shown) [biapenem]
[5]
  metabolism by human DHP-1: not readily metabolized
[6]
  mass of stable adduct with wild-type LdtMt2: +138 Da
[2]; [18]
  Kapp: 15.3 ± 2.5 µM
[2]; 10 μM LdtMt2, MES pH 6.5, 10° C., read-out: kinact (converted)
  kinact: 0.06 s⁻¹
[2]; read-out: kinact/Kapp ratio
  kinact/KI: 3830 M⁻¹ s⁻¹
[7]
  gross pathology of lungs (tuberculous lesions): no tuberculous lesions
[7]; three weeks of treatment
  M. tuberculosis burden in the lungs: no less effective than rifampicin
  bactericidal activity in vivo: lacked bactericidal activity

## C[C@@H](O)[C@H]1C(=O)N2C(C(=O)O)=C(S[C@@H]3CN[C@H](C(=O)N(C)C)C3)[C@H](C)[C@H]12 [meropenem]
[8]
  activity in macrophages and mice infected with M. tuberculosis: limited activity

## C[C@@H](O)[C@H]1C(=O)N2C(C(=O)O)=C([C@H]3CCCO3)S[C@H]12 [faropenem]
[9]
  Kd: 3.98 µM
[10]
  adducts detected in competition: faropenem adducts gave the only masses we could detect
  proteins reacted exclusively with the drug: 100%
[11]; [19]
  proteins reacted exclusively with the drug: 100%
[11]; [20]
  adducts detected in competition: faropenem adducts gave the only masses we could detect
[12]; [19]
  proteins reacted exclusively with the drug: 100%
[12]; [20]
  adducts detected in competition: faropenem adducts gave the only masses we could detect
[6]
  adducts detected in competition: faropenem adducts gave the only masses we could detect
  proteins reacted exclusively with the drug: 100%
  mass of stable adduct with wild-type LdtMt2: +86 Da
[13]
  adducts detected in competition: faropenem adducts gave the only masses we could detect
  proteins reacted exclusively with the drug: 100%
[14]
  Kd: 0.16 µM
[15]
  adducts detected in competition: faropenem adducts gave the only masses we could detect
  proteins reacted exclusively with the drug: 100%
[15]; covalently attached to C226
  mass of adduct with LdtMt1: 86 Da
[16]
  Kd: 6.25 µM
[2]; [18]
  Kapp: 49.2 ± 11.9 µM
[7]
  gross pathology of lungs (tuberculous lesions): developed tuberculous lesions in the lungs but their pathology and the bacterial burden were lower compared to untreated mice
[7]; three weeks of treatment
  M. tuberculosis burden in the lungs: lower compared to untreated mice
[7]; used alone
  survival / overall health of infected mice: prolonged the life of mice

## CC(=O)OCC1=C(C(=O)O)N2C(=O)[C@@H](NC(=O)Cc3cccs3)[C@H]2SC1 [Cephalothin]
[17]
  Kd: 200 µM
[3]
  Kd: 30.3 µM

## CC1(C)S[C@@H]2[C@H](NC(=O)[C@H](N)c3ccc(O)cc3)C(=O)N2[C@H]1C(=O)O [Amoxicillin]
[3]
  Kd: 1290 µM
